US12589090B2, “Compounds and methods for the treatment of degenerative disorders” (Aquilus Pharmaceuticals, Inc., priority 2019, dated 2026)
Where two headings read alike, the source gives them in different places.

Key:
[1] = Steady state oral/IV rat PK and compound penetration into spine and brain (Example 16); assay type: in vivo, Sprague-Dawley rats; conditions: for concentration at 5 h / AUC(0-inf) / AUC(0-t) / half-life / Cmax: male, Sprague-Dawley; for AUC(0-inf) / AUC(0-t) / half-life / Cmax: plasma
Excerpt: It is important if one is observing biochemical effects in the spine and brain that one is able to show clear evidence that the compound being tested is in fact able to penetrate to those areas of the body. The present example orally doses compound 118 once per day (SID) for three days to a series of rats. On the third after dosing the rats were then sacrificed after taking blood samples and the level of compound measured in the spine and brain.
Procedure: Twelve (12) male Sprague-Dawley rats were used. Fasting was conducted at least 16 hours prior to dose administration. The animals were placed into 4 groups of 3 animals per group. There was one intravenous (IV) group and three oral gavage (PO) groups (10 mg/Kg, 20 mg/Kg & 40 mg/Kg). The oral (PO) formulation for Groups 2-4 were prepared on the day of dosing at a target concentration of 0.5 mg/mL in 0.5% Methylcellulose (400 cps) to produce a white, homogeneous suspension. The study design is outlined in Table 4:
[…] […] All blood samples were immediately placed on ice until processing. Whole blood samples were centrifuged at 2200×g for 10 minutes in a refrigerated centrifuge (5±3° C.) to isolate plasma. The plasma samples were transferred to individual polypropylene vials and immediately placed on dry ice before storage at nominally −20±5° C. The plasma samples sometime later were then thawed and extracted and analyzed by high pressure liquid chromatography (HPLC) coupled to Mass Spectrometery (MS). Pharmacokinetic parameters were estimated using WinNonlin® pharmacokinetic software (Version No. 5.2.1) using a non-compartmental approach consistent with the PO route of administration. The rodents were then sacrificed. On Day 3, five hours after dosing, animals were euthanized and whole brain and spine were removed, washed with saline and flash frozen until storage at nominally −70° C. before transfer for concentration analysis. The plasma, brain and spinal tissue samples were analyzed for test article concentration using a Research Grade LC-MS/MS Assay.

[2] = tested on: SOD-1 overexpression in Drosophila motor neurons; experiment: SOD-1 Drosophila model of ALS, larval turning read-out (Example 24); assay type: in vivo; conditions: 1 microMolar, SOD-1 (wild-type and G85R) overexpression, vs. DMSO vehicle
Protocol: Procedure: Following the method of Zarnescu and coworkers (Human Molecular Genetics, 24(6), 1741-1754, 2015). UAS SOD-1 male Drosophila flies were crossed with D42-Gal4 female virgins on fly food containing either DMSO or 1% Compound 118 in dimethyl sulfoxide (DMSO). For DMSO controls, the same volume of DMSO as the corresponding Compound 118 concentration was added. Bromophenol blue was added to a final concentration of around 0.02% to ensure homogeneity. Crosses were made on drug food with three female virgins and two males in each vial and were maintained at 25° C. unless noted. The parents were discarded after 5-7 days and then the vials were screened for adult progeny with straight wings from Day 14 to Day 25. All adults were screened for SOD-1 expression. Read-outs involved the larval turning assay.
SOD-1^wt=Wild-type, SOD1^G85R=Diseases associated G85R mutant expressed in motor neurons. […], ***p<0.001 as compared to DMSO vehicle.

[3] = rat, iv, 1 mg/kg, DAY 1, 1 mg/kg IV
[4] = rat, iv, 1 mg/kg, DAY 2, 1 mg/kg IV once per day
[5] = rat, iv, 1 mg/kg, DAY 3, 1 mg/kg IV once per day
[6] = rat, po, 10 mg/kg, DAY 1, 10 mg/kg PO
[7] = rat, po, 10 mg/kg, DAY 2, 10 mg/kg PO once per day
[8] = rat, po, 10 mg/kg, DAY 3, 10 mg/kg PO once per day
[9] = rat, po, 20 mg/kg, DAY 1, 20 mg/kg PO
[10] = rat, po, 20 mg/kg, DAY 2, 20 mg/kg PO once per day
[11] = rat, po, 20 mg/kg, DAY 3, 20 mg/kg PO once per day
[12] = rat, po, 40 mg/kg, DAY 1, 40 mg/kg PO
[13] = rat, po, 40 mg/kg, DAY 2, 40 mg/kg PO once per day
[14] = rat, po, 40 mg/kg, DAY 3, 40 mg/kg PO once per day

[2H]C([2H])([2H])c1ccc(C#Cc2ccc(S(=O)(=O)N[C@H](Cc3c[nH]c4ccccc34)C(=O)O)s2)cc1 [Compound 118, (R)-3-(1H-Indol-3-yl)-2-[5-(4-trideuteromethyl-phenylethynyl)-thiophene-2-sulfonylamino]-propionic acid-(D3, 98%)]
dose linearity in plasma ([1]; 10, 20 and 40 mg/Kg oral doses, rat): exhibited dose linearity in plasma | concentration at 5 h ([1]; brain, 10-40 mg/Kg daily oral dose, Day 3, rat, highest level at 40 mg/Kg, read-out: Compound level in the brain): 30 to 84 ng/mL | concentration at 5 h ([1]; rat, brain, Day 3, five hours after dosing, 10 mg/kg PO once per day, read-out: Brain): 30.2 ng/mL | concentration at 5 h ([1]; rat, brain, Day 3, five hours after dosing, 20 mg/kg PO once per day, read-out: Brain): 42.1 ng/mL | concentration at 5 h ([1]; rat, brain, Day 3, five hours after dosing, 40 mg/kg PO once per day, read-out: Brain): 84.6 ng/mL | AUC(0-inf) [1, 3]: 1820 ng·h/mL | AUC(0-t) [1, 3]: 1810 ng·h/mL | half-life [1, 3]: 0.97 h | AUC(0-inf) [1, 4]: 1170 ng·h/mL | AUC(0-t) [1, 4]: 1170 ng·h/mL | half-life [1, 4]: 0.936 h | AUC(0-inf) [1, 5]: 1720 ng·h/mL | AUC(0-t) [1, 5]: 1650 ng·h/mL | half-life [1, 5]: 0.89 h | AUC(0-inf) [1, 6]: 3880 ng·h/mL | AUC(0-t) [1, 6]: 3770 ng·h/mL | Cmax [1, 6]: 1170 ng/mL | half-life [1, 6]: 1.29 h | AUC(0-inf) [1, 7]: 4480 ng·h/mL | AUC(0-t) [1, 7]: 4390 ng·h/mL | Cmax [1, 7]: 1340 ng/mL | half-life [1, 7]: 1.24 h | AUC(0-inf) [1, 8]: 12600 ng·h/mL | AUC(0-t) [1, 8]: 4010 ng·h/mL | Cmax [1, 8]: 1450 ng/mL | half-life [1, 8]: 1.59 h | AUC(0-inf) [1, 9]: 6520 ng·h/mL | AUC(0-t) [1, 9]: 6410 ng·h/mL | Cmax [1, 9]: 2140 ng/mL | half-life [1, 9]: 1.2 h | AUC(0-inf) [1, 10]: 4730 ng·h/mL | AUC(0-t) [1, 10]: 4650 ng·h/mL | Cmax [1, 10]: 2150 ng/mL | half-life [1, 10]: 1.28 h | AUC(0-inf) [1, 11]: 10100 ng·h/mL | AUC(0-t) [1, 11]: 8820 ng·h/mL | Cmax [1, 11]: 3850 ng/mL | half-life [1, 11]: 1.02 h | AUC(0-inf) [1, 12]: 15800 ng·h/mL | AUC(0-t) [1, 12]: 15600 ng·h/mL | Cmax [1, 12]: 5020 ng/mL | half-life [1, 12]: 1.01 h | AUC(0-inf) [1, 13]: 12200 ng·h/mL | AUC(0-t) [1, 13]: 12200 ng·h/mL | Cmax [1, 13]: 5570 ng/mL | half-life [1, 13]: 1.02 h | AUC(0-inf) [1, 14]: 15800 ng·h/mL | AUC(0-t) [1, 14]: 15600 ng·h/mL | Cmax [1, 14]: 5020 ng/mL | half-life [1, 14]: 1.01 h | concentration at 5 h ([1]; rat, spine, Day 3, five hours after dosing, 10 mg/kg PO once per day, read-out: Spine): 15.6 ng/mL | concentration at 5 h ([1]; rat, spine, Day 3, five hours after dosing, 20 mg/kg PO once per day, read-out: Spine): 18.3 ng/mL | concentration at 5 h ([1]; rat, spine, Day 3, five hours after dosing, 40 mg/kg PO once per day, read-out: Spine): 31 ng/mL | concentration at 5 h ([1]; spine, 10-40 mg/Kg daily oral dose, Day 3, rat, highest level at 40 mg/Kg, read-out: Compound level in the spine): 15 to 31 ng/mL | locomotive defects via larval turning times [2]: able to mitigate locomotive defects
